In series [1] the test system is cholesterol. As to conditions: in vivo; cited from earlier work.
Series [2] concerns cholesterol. As to conditions: animal models; cited from earlier work.
The next series concerns DNA. As to conditions: cited from earlier work.
Series [3] can be described thus: Ingestion of HCA by rodents, serum levels. Format: in vivo. The text has this:
(§1) It has been shown that ingestion of compositions incorporating a salt of (−) hydroxycitric acid (HCA) leads to increased levels of serotonin. Serotonin levels, like ghrelin levels, also are related to NPY, and an increase in serotonin levels is a well-established mechanism of appetite suppression. Ingestion of HCA by persons and rodents results in a decrease in serum leptin and ghrelin levels and an increase in serum serotonin levels.

Series [4] can be described thus: Ingestion of HCA by persons, serum levels and appetite (controlled trials). In kind it is in vivo.
Text: as §1

For `O=C(O[C@@H]1Cc2c(O)cc(O)cc2O[C@@H]1c1cc(O)c(O)c(O)c1)c1cc(O)c(O)c(O)c1` [EGCG, epigallocatechin gallate], the cholesterol levels result in the series with cholesterol [1] is recorded as “reduce cholesterol levels”.

For the molecule Gymnemic acid, the cholesterol entry in the series on cholesterol [2] is recorded as “lower cholesterol”.

In the case of chromium picolinate, the safety and toxicity entry in the series with DNA is “damage DNA and be mutagenic”.

`O=C(O)CC(O)(C(=O)O)C(O)C(=O)O` (single isomer, unassigned; (-)) [HCA, (−)hydroxycitric acid]: in series [3], the serum ghrelin levels entry is given as “decrease”, the serum leptin levels entry was “decrease” and the serum serotonin levels entry is on record as “increase”. For the same molecule, in series [4] (amount of food remaining on plates, controlled trials), the appetite result was “time-dependent decrease in appetite”. Besides, in series [4] (ingestion of HCA), the serum ghrelin levels result is given as “decrease”, the serum leptin levels result was “decrease” and the serum serotonin levels result is “increase”.

The record behind these values is patent publication US20040186181A1, “Method and composition for decreasing ghrelin levels” (InterHealth Nutraceuticals, Incorporated, priority 2003, published 2004).
